Results as given in US20260356851A1, “TRICYCLIC COMPOUNDS AND USES THEREOF” (HUTCHMED LIMITED, priority 2023, published 2026).

Columns and labels:
Format in all cases: cell-based
[1] = target: T1, pERK1/2 (Thr202/Tyr204), PANC-1 (KRAS G121D) (Homo sapiens, UniProt P01116, G12D); test: Assay of intracellular pERK1/2 (Thr202/Tyr204) phosphorylation in PANC-1 cells (KRAS G12D); conditions: pERK1/2, 2 days, read-out: PANC-1 (KRAS G12D) IC50
T1 construct: pERK1/2 HTRF read-out
In short: (§1)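 HTRF detection of Thr202/Tyr204-phosphorylated ERK1/2 (665/615 nm ratio) in lysates from cells treated 2 days with serially 3-fold diluted compound.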

[2] = target: T2, pERK1/2 (Thr202/Tyr204), NCI-1H358 (KRAS G12C) (Homo sapiens, UniProt P01116, G12C); test: Assay of intracellular pERK1/2 (Thr202/Tyr204) phosphorylation in NCI-H358 cells (KRAS G12C); conditions: pERK1/2, 2 days, read-out: NCI-H358 (KRAS G12C) IC50
T2 construct: pERK1/2 HTRF read-out
In short: as §1

[3] = target: T3, pERK1/2 (Thr202/Tyr204), NCI-1H441 (KRAS G12V) (Homo sapiens, UniProt P01116, G12V); test: Assay of intracellular pERK1/2 (Thr202/Tyr204) phosphorylation in NCI-H441 cells (KRAS G12V); conditions: pERK1/2, 2 days, read-out: NCI-H441 (KRAS G12V) IC50
T3 construct: pERK1/2 HTRF read-out
In short: as §1

T1 sequence (P01116 1-188 isoform P01116-2 G12D): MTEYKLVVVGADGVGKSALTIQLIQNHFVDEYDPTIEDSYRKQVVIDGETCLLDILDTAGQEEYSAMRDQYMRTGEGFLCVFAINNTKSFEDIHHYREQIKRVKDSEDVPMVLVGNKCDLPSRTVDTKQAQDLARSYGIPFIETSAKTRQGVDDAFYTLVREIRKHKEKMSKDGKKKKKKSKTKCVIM
T2 sequence (P01116 1-188 isoform P01116-2 G12C): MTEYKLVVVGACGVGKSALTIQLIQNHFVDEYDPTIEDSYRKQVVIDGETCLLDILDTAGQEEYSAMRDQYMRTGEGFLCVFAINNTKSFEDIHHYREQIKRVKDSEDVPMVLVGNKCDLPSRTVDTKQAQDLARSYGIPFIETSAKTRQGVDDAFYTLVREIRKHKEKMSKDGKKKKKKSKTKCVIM
T3 sequence (P01116 1-188 isoform P01116-2 G12V): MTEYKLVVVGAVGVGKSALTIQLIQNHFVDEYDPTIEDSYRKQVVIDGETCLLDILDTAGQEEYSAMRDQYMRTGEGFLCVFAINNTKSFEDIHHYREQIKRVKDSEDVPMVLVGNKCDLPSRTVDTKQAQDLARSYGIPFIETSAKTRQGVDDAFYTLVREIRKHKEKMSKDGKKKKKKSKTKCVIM

Structure (SMILES) | IC50 [1] | IC50 [2] | IC50 [3]
Cc1cc(N)cc(-c2nc3c4c(nc(OC[C@@H]5CCCN5C5COC5)nc4c2F)N(C(C)c2cccnc2N)CCO3)c1C(F)(F)F (single isomer, unassigned) [Compound 160, 3-((R or S)-1-(5-(5-amino-3-methyl-2-(trifluoromethyl)phenyl)-4-fluoro-2-(((S)-1-(oxetan-3-yl)pyrrolidin-2-yl)methoxy)-8,9-dihydro-10H-7-oxa-1,3,6,10-tetraazacyclohepta[de]naphthalen-10-yl)ethyl)pyridin-2-amine] | > 100 nM | 0.5 nM | 2 nM
Cc1cc(N)cc(-c2nc3c4c(nc(OC[C@@H]5CCCN5C5COC5)nc4c2F)N(C(C)c2cccnc2N)CCO3)c1C(F)(F)F (single isomer, unassigned) [Compound 161, 3-((R or S)-1-(5-(5-amino-3-methyl-2-(trifluoromethyl)phenyl)-4-fluoro-2-(((S)-1-(oxetan-3-yl)pyrrolidin-2-yl)methoxy)-8,9-dihydro-10H-7-oxa-1,3,6,10-tetraazacyclohepta[de]naphthalen-10-yl)ethyl)pyridin-2-amine] | > 100 nM | 14 nM | 48 nM
Cc1cc(N)cc(-c2nc3c4c(nc(OC[C@@]56CCCN5C[C@H](F)C6)nc4c2F)N([C@H](C)c2cccnc2N)CCCO3)c1C(F)(F)F (single isomer, unassigned) [Compound 166, 3-((R or S)-1-(5-(5-amino-3-methyl-2-(trifluoromethyl)phenyl)-4-fluoro-2-(((2R,7aS)-2-fluorotetrahydro-1H-pyrrolizin-7a(5H)-yl)methoxy)-9,10-dihydro-77-oxa-1,3,6,11-tetraazacycloocta[de]naphthalen-11(8H)-yl)ethyl)pyridin-2-amine] | > 100 nM | 69 nM | > 100 nM
Cc1cc(N)cc(-c2nc3c4c(nc(OC[C@@]56CCCN5C[C@H](F)C6)nc4c2F)N(C(C)c2cccnc2N)CCCO3)c1C(F)(F)F (single isomer, unassigned) [Compound 167, 3-((R or S)-1-(5-(5-amino-3-methyl-2-(trifluoromethyl)phenyl)-4-fluoro-2-(((2R,7aS)-2-fluorotetrahydro-1H-pyrrolizin-7a(5H)-yl)methoxy)-9,10-dihydro-7-oxa-1,3,6,11-tetraazacycloocta[de]naphthalen-11(8H)-yl)ethyl)pyridin-2-amine] | > 100 nM | > 100 nM | > 100 nM
[2H][C@@]1(F)CN2CCC[C@@]2(COc2nc3c4c(nc(-c5cc(N)c(F)c(C)c5C(F)(F)F)c(F)c4n2)OCCN3C(C)c2cccnc2N)C1 (single isomer, unassigned) [Compound 169, (*)3-(1-(5-(5-amino-4-fluoro-3-methyl-2-(trifluoromethyl)phenyl)-4-fluoro-2-(((2S or 2R,7aS)-2-fluorotetrahydro-1H-pyrrolizin-7a(5H)-yl-2-d)methoxy)-8,9-dihydro-1OH-7-oxa-1,3,6,10-tetraazacyclohepta[de]naphthalen-10-yl)ethyl)pyridin-2-amine] | 17 nM | 0.7 nM | 2 nM
[2H]C1([2H])CN(C(C)c2cccnc2N)c2nc(OC[C@@]34CCCN3C[C@H](F)C4)nc3c(F)c(-c4cc(N)c(F)c(C)c4C(F)(F)F)nc(c23)O1 (single isomer, unassigned) [Compound 184, 3-((R or S)-1-(5-(5-amino-4-fluoro-3-methyl-2-(trifluoromethyl)phenyl)-4-fluoro-2-(((2R,7aS)-2-fluorotetrahydro-1H-pyrrolizin-7a(5H)-yl)methoxy)-8,9-dihydro-10H-7-oxa-1,3,6,10-tetraazacyclohepta[de]naphthalen-10-yl-8,8-d2)ethyl)pyridin-2-amine] | 28 nM | 5 nM | 13 nM
[2H]C1([2H])Oc2nc(-c3cc(N)c(F)c(C)c3C(F)(F)F)c(F)c3nc(OC[C@@]45CCCN4C[C@H](F)C5)nc(c23)N(C(C)c2cccnc2N)C1([2H])[2H] (single isomer, unassigned) [Compound 200, 3-((R or S)-1-(5-(5-amino-4-fluoro-3-methyl-2-(trifluoromethyl)phenyl)-4-fluoro-2-(((2R,7aS)-2-fluorotetrahydro-1H-pyrrolizin-7a(5H)-yl)methoxy)-8,9-dihydro-10H-7-oxa-1,3,6,10-tetraazacyclohepta[de]naphthalen-10-yl-8,8,9,9-d4)ethyl)pyridin-2-amine] | 63 nM | 7 nM | 10 nM
[2H]C1([2H])Oc2nc(-c3cc(N)c(F)c(C)c3C(F)(F)F)c(F)c3nc(OC[C@@H]4C[C@@H](F)CN4C)nc(c23)N(C(C)c2cccnc2N)C1([2H])[2H] (single isomer, unassigned) [Compound 202, 3-((R or S)-1-(5-(5-amino-4-fluoro-3-methyl-2-(trifluoromethyl)phenyl)-4-fluoro-2-(((2S,4R)-4-fluoro-1-methylpyrrolidin-2-yl)methoxy)-8,9-dihydro-10H-7-oxa-1,3,6,10-tetraazacyclohepta[de]naphthalen-10-yl-8,8,9,9-d4)ethyl)pyridin-2-amine] | 13 nM | 0.4 nM | 1 nM
[2H]C1([2H])Oc2nc(-c3cc(N)c(F)c(C)c3C(F)(F)F)c(F)c3nc(OC[C@@H]4C[C@@H](F)CN4C)nc(c23)N(C(C)c2cccnc2N)C1([2H])[2H] (single isomer, unassigned) [Compound 203, 3-((R or S)-1-(5-(5-amino-4-fluoro-3-methyl-2-(trifluoromethyl)phenyl)-4-fluoro-2-(((2S,4R)-4-fluoro-1-methylpyrrolidin-2-yl)methoxy)-8,9-dihydro-10H-7-oxa-1,3,6,10-tetraazacyclohepta[de]naphthalen-10-yl-8,8,9,9-d4)ethyl)pyridin-2-amine] | > 100 nM | 88 nM | > 100 nM
[2H]C1([2H])Oc2nc(-c3cc(N)c(F)c(Cl)c3C(F)(F)F)c(F)c3nc(OC[C@@]45CCCN4C[C@H](F)C5)nc(c23)N(C(C)c2cccnc2N)C1([2H])[2H] (single isomer, unassigned) [Compound 207, 3-((R or S)-1-(5-(5-amino-3-chloro-4-fluoro-2-(trifluoromethyl)phenyl)-4-fluoro-2-(((2R,7aS)-2-fluorotetrahydro-1H-pyrrolizin-7a(5H)-yl)methoxy)-8,9-dihydro-10H-7-oxa-1,3,6,10-tetraazacyclohepta[de]naphthalen-10-yl-8,8,9,9-d4)ethyl)pyridin-2-amine] | > 100 nM | 9 nM | 33 nM

Stronger by IC50 [1], values ahead:

IC50 [1] | IC50 [2] | IC50 [3] | Structure (SMILES)
2 nM | 0.2 nM | 0.5 nM | [2H][C@]1(F)CN2CCC[C@@]2(COc2nc3c4c(nc(-c5cc(N)c(F)c(C)c5C(F)(F)F)c(F)c4n2)OCCN3C(C)c2cccnc2N)C1 (single isomer, unassigned) [Compound 170, (*)3-(1-(5-(5-amino-4-fluoro-3-methyl-2-(trifluoromethyl)phenyl)-4-fluoro-2-(((2S or 2R,7aS)-2-fluorotetrahydro-1H-pyrrolizin-7a(5H)-yl-2-d)methoxy)-8,9-dihydro-1OH-7-oxa-1,3,6,10-tetraazacyclohepta[de]naphthalen-10-yl)ethyl)pyridin-2-amine]
1 nM | 0.1 nM | 0.3 nM | [2H]C1([2H])CN(C(C)c2cccnc2N)c2nc(OC[C@@]34CCCN3C[C@H](F)C4)nc3c(F)c(-c4cc(N)c(F)c(C)c4C(F)(F)F)nc(c23)O1 (single isomer, unassigned) [Compound 183, 3-((R or S)-1-(5-(5-amino-4-fluoro-3-methyl-2-(trifluoromethyl)phenyl)-4-fluoro-2-(((2R,7aS)-2-fluorotetrahydro-1H-pyrrolizin-7a(5H)-yl)methoxy)-8,9-dihydro-10H-7-oxa-1,3,6,10-tetraazacyclohepta[de]naphthalen-10-yl-8,8-d2)ethyl)pyridin-2-amine]
1 nM | 0.2 nM | 0.2 nM | [2H]C1([2H])Oc2nc(-c3cc(N)c(F)c(C)c3C(F)(F)F)c(F)c3nc(OC[C@@]45CCCN4C[C@H](F)C5)nc(c23)N(C(C)c2cccnc2N)C1([2H])[2H] (single isomer, unassigned) [Compound 199, 3-((R or S)-1-(5-(5-amino-4-fluoro-3-methyl-2-(trifluoromethyl)phenyl)-4-fluoro-2-(((2R,7aS)-2-fluorotetrahydro-1H-pyrrolizin-7a(5H)-yl)methoxy)-8,9-dihydro-10H-7-oxa-1,3,6,10-tetraazacyclohepta[de]naphthalen-10-yl-8,8,9,9-d4)ethyl)pyridin-2-amine]
0.8 nM | 0.2 nM | 0.3 nM | [2H]C1([2H])Oc2nc(-c3cc(N)c(F)c(Cl)c3C(F)(F)F)c(F)c3nc(OC[C@@]45CCCN4C[C@H](F)C5)nc(c23)N(C(C)c2cccnc2N)C1([2H])[2H] (single isomer, unassigned) [Compound 206, 3-((R or S)-1-(5-(5-amino-3-chloro-4-fluoro-2-(trifluoromethyl)phenyl)-4-fluoro-2-(((2R,7aS)-2-fluorotetrahydro-1H-pyrrolizin-7a(5H)-yl)methoxy)-8,9-dihydro-10H-7-oxa-1,3,6,10-tetraazacyclohepta[de]naphthalen-10-yl-8,8,9,9-d4)ethyl)pyridin-2-amine]
